Test results: ChEMBL document CHEMBL1141364, “Design and synthesis of indane-ureido-thioisobutyric acids: A novel class of PPARalpha agonists” (Bioorg Med Chem Lett, 2007)

Experiments:
[1] = target: T1, Peroxisome proliferator-activated receptor alpha (Rattus norvegicus, UniProt P37230); experiment: Agonist activity at rat PPARalpha in rat H4IIE cells assessed as gene induction; format: functional, cell-based
T1 sequence (P37230 whole entry): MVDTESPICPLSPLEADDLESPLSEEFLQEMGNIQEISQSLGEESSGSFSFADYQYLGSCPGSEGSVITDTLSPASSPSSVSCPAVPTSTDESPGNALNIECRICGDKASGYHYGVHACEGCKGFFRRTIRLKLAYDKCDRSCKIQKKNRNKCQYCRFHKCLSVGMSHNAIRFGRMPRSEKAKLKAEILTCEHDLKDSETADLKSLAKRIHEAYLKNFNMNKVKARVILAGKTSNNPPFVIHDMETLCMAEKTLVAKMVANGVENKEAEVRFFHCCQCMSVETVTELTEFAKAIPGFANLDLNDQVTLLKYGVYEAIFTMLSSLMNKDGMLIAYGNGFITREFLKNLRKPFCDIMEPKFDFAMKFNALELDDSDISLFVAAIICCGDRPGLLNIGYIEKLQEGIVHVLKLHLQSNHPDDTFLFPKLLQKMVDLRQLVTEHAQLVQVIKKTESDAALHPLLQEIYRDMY

[2] = Metabolic stability in human liver microsomes at 5 uM; format: ADME, Microsome
[3] = Cmax in Sprague-Dawley rat at 3 mg/kg, iv or 30 mg/kg, po; format: ADME, organism-based; conditions: in vivo
[4] = AUC in Sprague-Dawley rat at 3 mg/kg, iv or 30 mg/kg, po; format: ADME, organism-based; conditions: plasma
[5] = Half life at terminal phase in Sprague-Dawley rat at 30 mg/kg, po; format: ADME, organism-based; design: dose 30 mg/kg, route oral; conditions: in vivo, read-out: beta t1/2 (converted)
[6] = Total clearance in Sprague-Dawley rat at 3 mg/kg, iv or 30 mg/kg, po; format: ADME, organism-based; conditions: in vivo
[7] = Oral bioavailability in Sprague-Dawley rat at 30 mg/kg; format: ADME, organism-based; conditions: in vivo

EC50 [1] [nM] | SMILES | other results
1270 | CCCCCCCN(C(=O)Nc1ccc(C(F)(F)F)cc1)C1Cc2ccc(SC(C)(C)C(=O)O)cc2C1 (configuration not stated) | 
4990 | CCCCCCCN(C(=O)Nc1ccccc1OC(F)(F)F)C1Cc2ccc(SC(C)(C)C(=O)O)cc2C1 (configuration not stated) | 
> 13000 | CCCCCCCN(C(=O)Nc1ccc(OC(F)(F)F)cc1)[C@H]1Cc2ccc(SC(C)(C)C(=O)O)cc2C1 | 
598 | CCN(C(=O)Nc1ccc(OC(F)(F)F)cc1C)C1Cc2ccc(SC(C)(C)C(=O)O)cc2C1 (configuration not stated) | 
910 | CCCCCCCN(C(=O)Nc1ccc(OC)cc1)C1Cc2ccc(SC(C)(C)C(=O)O)cc2C1 (configuration not stated) | 
2730 | CCCCCCCN(C(=O)Nc1cccc(C(F)(F)F)c1)C1Cc2ccc(SC(C)(C)C(=O)O)cc2C1 (configuration not stated) | 
707 | CC(C)(Sc1ccc2c(c1)CC(N(CCCC(F)(F)F)C(=O)Nc1ccc(OC(F)(F)F)cc1)C2)C(=O)O (configuration not stated) | 
229 | CCCCCCCN(C(=O)Nc1ccc(C(C)C)cc1)C1Cc2ccc(SC(C)(C)C(=O)O)cc2C1 (configuration not stated) | 
249 | CCCCCCN(C(=O)Nc1ccc(SC(F)(F)F)cc1)C1Cc2ccc(SC(C)(C)C(=O)O)cc2C1 (configuration not stated) | 
32 | CCN(C(=O)Nc1ccc(C(C)C)cc1)C1Cc2ccc(SC(C)(C)C(=O)O)cc2C1 (configuration not stated) | half-life at 5 µM [2]: 0.2 h; Cmax [3]: 32400 ng/mL; AUC [4]: 37100 ng·h/mL; half-life [5]: 2.92 h; clearance [6]: 0.81 mL/min/kg; bioavailability [7]: 34%
23 | CCN(C(=O)Nc1ccc(SC(F)(F)F)cc1)C1Cc2ccc(SC(C)(C)C(=O)O)cc2C1 (configuration not stated) | half-life at 5 µM [2]: 1.67 h; Cmax [3]: 5670 ng/mL; AUC [4]: 101000 ng·h/mL; half-life [5]: 3.84 h; clearance [6]: 0.3 mL/min/kg; bioavailability [7]: 100%
46 | CCCCCN(C(=O)Nc1ccc(SC(F)(F)F)cc1)C1Cc2ccc(SC(C)(C)C(=O)O)cc2C1 (configuration not stated) | half-life at 5 µM [2]: 1.27 h; Cmax [3]: 8020 ng/mL; AUC [4]: 54700 ng·h/mL; half-life [5]: 4.05 h; clearance [6]: 0.55 mL/min/kg; bioavailability [7]: 59%
386 | CC(C)CCN(C(=O)Nc1ccc(OC(F)(F)F)cc1)C1Cc2ccc(SC(C)(C)C(=O)O)cc2C1 (configuration not stated) | 
159 | CCCCCN(C(=O)Nc1ccc(C(C)C)cc1)C1Cc2ccc(SC(C)(C)C(=O)O)cc2C1 (configuration not stated) | 
419 | CCCCCCCN(C(=O)Nc1ccc(SC)cc1)C1Cc2ccc(SC(C)(C)C(=O)O)cc2C1 (configuration not stated) | 
> 10000 | CCCCCCCN(C(=O)Nc1ccccc1)C1Cc2ccc(SC(C)(C)C(=O)O)cc2C1 (configuration not stated) | 
210 | CCCCCCCN(C(=O)Nc1ccc(SC(F)(F)F)cc1)C1Cc2ccc(SC(C)(C)C(=O)O)cc2C1 (configuration not stated) | 
> 3000 | CCN(C(=O)Nc1ccc(OC(F)(F)F)c(Br)c1)C1Cc2ccc(SC(C)(C)C(=O)O)cc2C1 (configuration not stated) | 
117 | CCN(C(=O)Nc1ccc(N(C)C)cc1)C1Cc2ccc(SC(C)(C)C(=O)O)cc2C1 (configuration not stated) | half-life at 5 µM [2]: 1.33 h; Cmax [3]: 72300 ng/mL; AUC [4]: 273000 ng·h/mL; half-life [5]: 4.46 h; clearance [6]: 0.11 mL/min/kg; bioavailability [7]: 58%
96 | CC(C)(Sc1ccc2c(c1)CC(NC(=O)Nc1ccc(OC(F)(F)F)cc1)C2)C(=O)O (configuration not stated) | 
> 10000 | CC(C)(Oc1ccc(C2CC2(Cl)Cl)cc1)C(=O)O (configuration not stated) [CIPROFIBRATE] | 
294 | CCCCCCCN(C(=O)Nc1ccc(OC(F)(F)F)cc1)C1Cc2ccc(SC(C)(C)C(=O)O)cc2C1 (configuration not stated) | 
2670 | CCCCCCCN(C(=O)Nc1cccc(F)c1)C1Cc2ccc(SC(C)(C)C(=O)O)cc2C1 (configuration not stated) | 
> 10000 | CCCCCCCN(C(=O)Nc1ccc(F)cc1F)C1Cc2ccc(SC(C)(C)C(=O)O)cc2C1 (configuration not stated) | 
219 | CCCCCCN(C(=O)Nc1ccc(N(C)C)cc1)C1Cc2ccc(SC(C)(C)C(=O)O)cc2C1 (configuration not stated) | 
141 | CCCCCN(C(=O)Nc1ccc(N(C)C)cc1)C1Cc2ccc(SC(C)(C)C(=O)O)cc2C1 (configuration not stated) | half-life at 5 µM [2]: 1.57 h; Cmax [3]: 20800 ng/mL; AUC [4]: 63600 ng·h/mL; half-life [5]: 2.6 h; clearance [6]: 0.47 mL/min/kg; bioavailability [7]: 62%

EC50 [1] [nM] | SMILES | other results
6390 | CCCCCCCN(C(=O)Nc1ccccc1C(F)(F)F)C1Cc2ccc(SC(C)(C)C(=O)O)cc2C1 (configuration not stated) | 
105 | CCCCCN(C(=O)Nc1ccc(OC(F)(F)F)cc1)C1Cc2ccc(SC(C)(C)C(=O)O)cc2C1 (configuration not stated) | half-life at 5 µM [2]: 1.67 h; Cmax [3]: 16600 ng/mL; AUC [4]: 121000 ng·h/mL; half-life [5]: 7.19 h; clearance [6]: 0.25 mL/min/kg; bioavailability [7]: 24%
> 1000 | CCN(C(=O)N(C)c1ccc(OC(F)(F)F)cc1)C1Cc2ccc(SC(C)(C)C(=O)O)cc2C1 (configuration not stated) | 
7540 | CCCCCCCN(C(=O)Nc1ccccc1C)C1Cc2ccc(SC(C)(C)C(=O)O)cc2C1 (configuration not stated) | 
260 | CCCCN(C(=O)Nc1ccc(C(C)C)cc1)C1Cc2ccc(SC(C)(C)C(=O)O)cc2C1 (configuration not stated) | 
425 | COCCN(C(=O)Nc1ccc(OC(F)(F)F)cc1)C1Cc2ccc(SC(C)(C)C(=O)O)cc2C1 (configuration not stated) | 
1960 | CCCCCCCN(C(=O)Nc1ccccc1SC(F)(F)F)C1Cc2ccc(SC(C)(C)C(=O)O)cc2C1 (configuration not stated) | 
1110 | CCCCCCCN(C(=O)Nc1cccc(OC)c1)C1Cc2ccc(SC(C)(C)C(=O)O)cc2C1 (configuration not stated) | 
169 | CCCCCCCN(C(=O)Nc1ccc(OC(F)(F)F)cc1)[C@@H]1Cc2ccc(SC(C)(C)C(=O)O)cc2C1 | 
> 10000 | CCCCCCCN(C(=O)Nc1ccccc1F)C1Cc2ccc(SC(C)(C)C(=O)O)cc2C1 (configuration not stated) | 
180 | CCCCCCN(C(=O)Nc1ccc(C(C)C)cc1)C1Cc2ccc(SC(C)(C)C(=O)O)cc2C1 (configuration not stated) | 
> 3000 | CCN(C(=O)Nc1ccc(OC(F)(F)F)c(Cl)c1)C1Cc2ccc(SC(C)(C)C(=O)O)cc2C1 (configuration not stated) | 
> 5000 | CC(C)N(C(=O)Nc1ccc(OC(F)(F)F)cc1)C1Cc2ccc(SC(C)(C)C(=O)O)cc2C1 (configuration not stated) | 
146 | CC(C)(Sc1ccc2c(c1)C[C@H](NC(=O)Nc1ccc(OC(F)(F)F)cc1)C2)C(=O)O | 
166 | CCCCCCN(C(=O)Nc1ccc(OC(F)(F)F)cc1)C1Cc2ccc(SC(C)(C)C(=O)O)cc2C1 (configuration not stated) | 
> 5000 | CCCCCN(C(=O)NC1Cc2ccc(SC(C)(C)C(=O)O)cc2C1)c1ccc(OC(F)(F)F)cc1 (configuration not stated) | 
252 | CCCCCCCN(C(=O)Nc1ccc(N(C)C)cc1)C1Cc2ccc(SC(C)(C)C(=O)O)cc2C1 (configuration not stated) | 
1030 | CCCCCCCCN(C(=O)Nc1ccc(OC(F)(F)F)cc1)C1Cc2ccc(SC(C)(C)C(=O)O)cc2C1 (configuration not stated) | 
> 1000 | CCN(C(=O)Nc1ccc(OC(F)(F)F)cc1Br)C1Cc2ccc(SC(C)(C)C(=O)O)cc2C1 (configuration not stated) | 
195 | CCCCN(C(=O)Nc1ccc(OC(F)(F)F)cc1)C1Cc2ccc(SC(C)(C)C(=O)O)cc2C1 (configuration not stated) | 
165 | CCN(C(=O)Nc1ccc(OC(F)(F)F)cc1)[C@H]1Cc2ccc(SC(C)(C)C(=O)O)cc2C1 | 
2850 | CN(C(=O)Nc1ccc(OC(F)(F)F)cc1)C1Cc2ccc(SC(C)(C)C(=O)O)cc2C1 (configuration not stated) | 
1110 | CC(C)(Sc1ccc2c(c1)C[C@@H](NC(=O)Nc1ccc(OC(F)(F)F)cc1)C2)C(=O)O | 
2340 | CC(C)CN(C(=O)Nc1ccc(OC(F)(F)F)cc1)C1Cc2ccc(SC(C)(C)C(=O)O)cc2C1 (configuration not stated) | 
561 | CCCCN(C(=O)Nc1ccc(N(C)C)cc1)C1Cc2ccc(SC(C)(C)C(=O)O)cc2C1 (configuration not stated) | 
